Ends that are not written are not given here.
Columns and labels:
[1] = system: methicillin resistant Staphylococcus aureus (MRSA) biofilm; details: approximate peptide concentration […] (around 3 μg/ml); compared to untreated samples
Outline: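 Peptide was present from inoculation onward, with bacteria seeded at 1/100 from overnight cultures into BM2 biofilm medium or Luria Broth. Crystal violet staining of surface-attached cells (A595) quantified biofilm reduction at 22–46 h. K. pneumoniae was additionally screened in a real-time Bioflux flow device for some peptides.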

[2] = system: human peripheral blood mononuclear cells (MCP-1); test: SPOT-synthesized derivative screen: production of chemokine MCP-1; format: cell-based; details: Table 12, No LPS, human PBMC, peptide at ~18-24 μM; for MCP1: background subtracted 139 (HH2 derivatives), 170 (1018 derivatives), 242 (1002 and hybrid peptides) pg/ml
Outline: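 MCP-1 was quantified by capture ELISA in cleared culture supernatants of treated human peripheral blood mononuclear cells. Cells came from heparinized volunteer blood via Ficoll gradient and were seeded at 0.75 to 1×10^6 cells/ml (37 °C, 5% CO2).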

[3] = system: LPS-stimulated human peripheral blood mononuclear cells (IL1-β); format: cell-based; details: Table 12, cells stimulated with 10 ng/ml LPS; for IL1β Production: LPS alone 1313 (HH2 derivatives), 1927 (1018 derivatives), 2455 (1002 and hybrid peptides) pg/ml

Substance | % Biofilm inhibition [1] | Fold increase in MCP1 cf. untreated cells [2] | MCP1 [2] | Fold change in IL1β relative to no peptide LPS stimulated cells [3] | IL1β Production [3]
1018-G11: single substituted 1018 peptide (VRLIVAVRIWGR-NH2) [Peptide 1018-G11] | 40% | 48 | 7922 pg/mL | 0.91 | 1189 pg/mL
1018-L1: single substituted 1018 peptide (LRLIVAVRIWRR-NH2) [Peptide 1018-L1] | 72% | 4.1 | 531 pg/mL | 0.21 | 282 pg/mL
1002-Q9: single substituted 1002 peptide (VQRWLIVWQIRK-NH2) [Peptide 1002-Q9] | 41% | 7.2 | 1514.2 pg/mL | 0.05 | 127 pg/mL
1002-W11: single substituted 1002 peptide (VQRWLIVWRIWK-NH2) [Peptide 1002-W11] | 37% | 0.9 | -36.2 pg/mL | 0.05 | 127 pg/mL
1018-A7: single substituted 1018 peptide (VRLIVAARIWRR-NH2) [Peptide 1018-A7] | 52% | 0.5 | -88 pg/mL | 0.68 | 891 pg/mL
HH2-L11: single substituted HH2 peptide (VQLRIRVAVILA-NH2) | 47% | 40 | 6545 pg/mL | 1.09 | 1425 pg/mL
HH2-R8: single substituted HH2 peptide (VQLRIRVRVIRA-NH2) | 71% | 121 | 1890 pg/mL | 0.79 | 1042 pg/mL
1018-V6: single substituted 1018 peptide (VRLIVVVRIWRR-NH2) [Peptide 1018-V6] | 70% | 1.6 | 110 pg/mL | 0.17 | 226 pg/mL
1018-V9: single substituted 1018 peptide (VRLIVAVRVWRR-NH2) [Peptide 1018-V9] | 53% | 105 | 17711 pg/mL | 0.11 | 142 pg/mL
1002-K6: single substituted 1002 peptide (VQRWLKVWRIRK-NH2) [Peptide 1002-K6] | 2% | 0.9 | -36.2 pg/mL | 0.33 | 808 pg/mL
1002-A6: single substituted 1002 peptide (VQRWLAVWRIRK-NH2) [Peptide 1002-A6] | 28% | 3.0 | 485.3 pg/mL | 0.16 | 382 pg/mL
1002-L4: single substituted 1002 peptide (VQRLLIVWRIRK-NH2) [Peptide 1002-L4] | 33% | 3.0 | 493.6 pg/mL | 0.12 | 283 pg/mL
1002-Q11: single substituted 1002 peptide (VQRWLIVWRIQK-NH2) [Peptide 1002-Q11] | 67% | 13.5 | 3022.9 pg/mL | 0.05 | 127 pg/mL
1018-W3: single substituted 1018 peptide (VRWIVAVRIWRR-NH2) [Peptide 1018-W3] | 66% | 6.6 | 953 pg/mL | 0.10 | 127 pg/mL
1018-Q2: single substituted 1018 peptide (VQLIVAVRIWRR-NH2) [Peptide 1018-Q2] | 52% | 3.5 | 422 pg/mL | 0.10 | 127 pg/mL
1002-Q1: single substituted 1002 peptide (QQRWLIVWRIRK-NH2) [Peptide 1002-Q1] | 77% | 6.9 | 1423.5 pg/mL | 0.05 | 127 pg/mL
1018-Q7: single substituted 1018 peptide (VRLIVAQRIWRR-NH2) [Peptide 1018-Q7] | 28% | 0.7 | -54 pg/mL | 1.04 | 1368 pg/mL
HH2-W10: single substituted HH2 peptide (VQLRIRVAVWRA-NH2) | 48% | 15 | 2448 pg/mL | 1.02 | 1344 pg/mL
HH2-A10: single substituted HH2 peptide (VQLRIRVAVARA-NH2) | 53% | 2.5 | 258 pg/mL | 1.70 | 2234 pg/mL
HH2-I2: single substituted HH2 peptide (VILRIRVAVIRA-NH2) | 54% | 11 | 1748 pg/mL | 0.81 | 1060 pg/mL
1018-I1: single substituted 1018 peptide (IRLIVAVRIWRR-NH2) [Peptide 1018-I1] | 56% | 18 | 2873 pg/mL | 0.11 | 138 pg/mL
1002-W2: single substituted 1002 peptide (VWRWLIVWRIRK-NH2) [Peptide 1002-W2] | 61% | 11.8 | 2611.5 pg/mL | 0.05 | 127 pg/mL
1002-W10: single substituted 1002 peptide (VQRWLIVWRWRK-NH2) [Peptide 1002-W10] | 71% | 8.8 | 1889.1 pg/mL | 0.05 | 127 pg/mL
HH2-W5: single substituted HH2 peptide (VQLRWRVAVIRA-NH2) | 63% | 14 | 2198 pg/mL | 0.77 | 1007 pg/mL
1018-Q3: single substituted 1018 peptide (VRQIVAVRIWRR-NH2) [Peptide 1018-Q3] | 12% | 1.0 | -2 pg/mL | 1.03 | 1359 pg/mL
1002-I11: single substituted 1002 peptide (VQRWLIVWRIIK-NH2) [Peptide 1002-I11] | 67% | 2.0 | 238.8 pg/mL | 0.05 | 127 pg/mL
1002-L2: single substituted 1002 peptide (VLRWLIVWRIRK-NH2) [Peptide 1002-L2] | 72% | 9.1 | 1968.2 pg/mL | 0.05 | 127 pg/mL
HH2-G9: single substituted HH2 peptide (VQLRIRVAGIRA-NH2) | 59% | 3.0 | 342 pg/mL | 1.04 | 1363 pg/mL
1018-G3: single substituted 1018 peptide (VRGIVAVRIWRR-NH2) [Peptide 1018-G3] | 42% | 1.5 | 83 pg/mL | 0.57 | 748 pg/mL
1018-W5: single substituted 1018 peptide (VRLIWAVRIWRR-NH2) [Peptide 1018-W5] | 55% | 0.8 | -28 pg/mL | 0.10 | 127 pg/mL

From patent publication US20190315823A1, “SMALL CATIONIC ANTI-BIOFILM AND IDR PEPTIDES” (priority 2013, published 2019)
